One block for each compound: values may come before it.
What was measured:
[1] = Initial plasma concentration in Wistar rat at 2 mg/kg, iv measured upto 24 hrs by LC/MS/MS analysis; type: ADME, organism-based; details: in vivo
[2] = Stability of the compound in human plasma assessed as compound remaining measured within 120 mins at 37 degC by HPLC analysis; type: ADME, cell-free; details: read-out: Stabilty
[3] = AUC (0 to infinity) in Wistar rat at 10 mg/kg, po measured upto 24 hrs by LC/MS/MS analysis; type: ADME, organism-based; parameters: route oral, dose 10 mg/kg, time <=24; details: in vivo
[4] = AUC (0 to t) in Wistar rat at 10 mg/kg, po measured upto 24 hrs by LC/MS/MS; type: ADME, organism-based; parameters: route oral, dose 10 mg/kg, time <=24; details: in vivo
[5] = AUC in Wistar rat at 2 mg/kg, iv measured upto 24 hrs by LC/MS/MS analysis; type: ADME, organism-based; parameters: route intravenous, dose 2 mg/kg, time <=24; details: in vivo
[6] = Volume of distribution in Wistar rat at 2 mg/kg, iv measured upto 24 hrs by LC/MS/MS analysis; type: ADME, organism-based; details: in vivo
[7] = AUC (0 to infinity) in Wistar rat at 2 mg/kg, iv measured upto 24 hrs by LC/MS/MS analysis; type: ADME, organism-based; parameters: route intravenous, dose 2 mg/kg, time <=24; details: in vivo
[8] = Cmax in Wistar rat at 10 mg/kg, po measured upto 24 hrs by LC/MS/MS analysis; type: ADME, organism-based; parameters: route oral, dose 10 mg/kg, time <=24; details: in vivo
[9] = Oral bioavailability in Wistar rat assessed as (R)-(6-chloro-4-(5-cyclopropyl-1H-pyrazol-3-ylamino)quinazolin-2-yl)(3-methylpiperazin-1-yl)methanone hydrochloride at 10 mg/kg measured upto 24 hrs by LC/MS/MS analysis; type: ADME, organism-based; details: in vivo
[10] = Half life in Wistar rat at 2 mg/kg, iv measured upto 24 hrs by LC/MS/MS analysis; type: ADME, organism-based; details: in vivo
[11] = Half life in Wistar rat at 10 mg/kg, po measured upto 24 hrs by LC/MS/MS analysis; type: ADME, organism-based; details: in vivo
[12] = Stability of the compound in rat liver S9 fraction assessed as compound remaining measured after 60 mins at 37 degC by LC-MS/MS analysis; type: ADME, subcellular; details: read-out: Stabilty
[13] = Tmax in Wistar rat at 10 mg/kg, po measured upto 24 hrs by LC/MS/MS analysis; type: ADME, organism-based; details: in vivo
[14] = Clearance in Wistar rat at 2 mg/kg, iv measured upto 24 hrs by LC/MS/MS analysis; type: ADME, organism-based; details: in vivo
[15] = AUC (0 to infinity) in Wistar rat assessed as (R)-(6-chloro-4-(5-cyclopropyl-1H-pyrazol-3-ylamino)quinazolin-2-yl)(3-methylpiperazin-1-yl)methanone hydrochloride at 13.5 mg/kg, po measured upto 24 hrs by LC/MS/MS analysis; type: ADME, organism-based; parameters: route oral, dose 13.5 mg/kg, time <=24; details: in vivo
[16] = Oral bioavailability in Wistar rat assessed as (R)-(6-chloro-4-(5-cyclopropyl-1H-pyrazol-3-ylamino)quinazolin-2-yl)(3-methylpiperazin-1-yl)methanone hydrochloride at 13.5 mg/kg measured upto 24 hrs by LC/MS/MS analysis; type: ADME, organism-based; details: in vivo
[17] = system: B16-F10; experiment: Antitumor activity against mouse B16F10 cells xenografted in BABL/c nude mouse assessed as reduction in tumor volume at 25 mg/kg, po qd measured after 21 days; type: functional; details: 504 h, time 21 day
[18] = Cmax in Wistar rat assessed as (R)-(6-chloro-4-(5-cyclopropyl-1H-pyrazol-3-ylamino)quinazolin-2-yl)(3-methylpiperazin-1-yl)methanone hydrochloride at 13.5 mg/kg, po measured upto 24 hrs by LC/MS/MS analysis; type: ADME, organism-based; parameters: route oral, dose 13.5 mg/kg, time <=24; details: in vivo
[19] = Chemical stability of the compound in pH 6.8 simulated intestinal fluid assessed as compound remaining measured after 2 hrs by HPLC analysis; type: physicochemical
[20] = Chemical stability of the compound in pH 7.4 PBS buffer assessed as compound remaining measured after 2 hrs by HPLC analysis; type: physicochemical; details: read-out: Stabilty
[21] = Toxicity in […] nude mouse harboring human HCT-116 cells assessed as body weight loss at 25 to 50 mg/kg, po qd measured after 21 days relative to control; type: organism-based; details: in vivo, 504 h, dose 25-50 mg/kg, time 21 day
[22] = AUC in Wistar rat assessed as (R)-(6-chloro-4-(5-cyclopropyl-1H-pyrazol-3-ylamino)quinazolin-2-yl)(3-methylpiperazin-1-yl)methanone hydrochloride at 2.5 mg/kg, iv measured upto 24 hrs by LC/MS/MS analysis; type: ADME, organism-based; parameters: route intravenous, dose 2.5 mg/kg, time <=24; details: in vivo
[23] = system: B16-F10; experiment: Antitumor activity against mouse B16F10 cells xenografted in BABL/c nude mouse assessed as reduction in tumor volume at 50 mg/kg, po qd measured after 21 days; type: functional; details: 504 h, time 21 day
[24] = system: HCT-116; experiment: Antitumor activity against human HCT-116 cells xenografted in BABL/c nude mouse assessed as reduction in tumor weight at 25 mg/kg, po qd measured after 21 days; type: functional; details: HCT-116, po, 504 h, time 21 day
[25] = Chemical stability of the compound in pH 1.2 simulated gastric fluid buffer assessed as compound remaining measured after 2 hrs by HPLC analysis; type: physicochemical
[26] = Toxicity in […] nude mouse harboring mouse B16F10 cells assessed as body weight loss at 25 to 50 mg/kg, po qd measured after 21 days relative to control; type: organism-based; details: in vivo, 504 h, dose 25-50 mg/kg, time 21 day
[27] = Volume of distribution in Wistar rat assessed as (R)-(6-chloro-4-(5-cyclopropyl-1H-pyrazol-3-ylamino)quinazolin-2-yl)(3-methylpiperazin-1-yl)methanone hydrochloride at 2.5 mg/kg, iv measured upto 24 hrs by LC/MS/MS analysis; type: ADME, organism-based; details: in vivo
[28] = Prodrug conversion in human plasma assessed as release of active metabolite (R)-(6-chloro-4-(5-cyclopropyl-1H-pyrazol-3-ylamino)quinazolin-2-yl)(3-methylpiperazin-1-yl)methanone hydrochloride measured within 120 mins at 37 degC by HPLC analysis; type: ADME, cell-free; details: 2 h
[29] = system: HCT-116; experiment: Antitumor activity against human HCT-116 cells xenografted in BABL/c nude mouse assessed as reduction in tumor weight at 50 mg/kg, po qd measured after 21 days; type: functional; details: HCT-116, po, 504 h, time 21 day
[30] = Tmax in Wistar rat assessed as (R)-(6-chloro-4-(5-cyclopropyl-1H-pyrazol-3-ylamino)quinazolin-2-yl)(3-methylpiperazin-1-yl)methanone hydrochloride at 13.5 mg/kg, po measured upto 24 hrs by LC/MS/MS analysis; type: ADME, organism-based; details: in vivo
[31] = Half life in Wistar rat assessed as (R)-(6-chloro-4-(5-cyclopropyl-1H-pyrazol-3-ylamino)quinazolin-2-yl)(3-methylpiperazin-1-yl)methanone hydrochloride at 2.5 mg/kg, iv measured upto 24 hrs by LC/MS/MS analysis; type: ADME, organism-based; details: in vivo
[32] = AUC in Wistar rat assessed as (R)-(6-chloro-4-(5-cyclopropyl-1H-pyrazol-3-ylamino)quinazolin-2-yl)(3-methylpiperazin-1-yl)methanone hydrochloride at 13.5 mg/kg, po measured upto 24 hrs by LC/MS/MS analysis; type: ADME, organism-based; parameters: route oral, dose 13.5 mg/kg, time <=24; details: in vivo
[33] = AUC (0 to infinity) in Wistar rat assessed as (R)-(6-chloro-4-(5-cyclopropyl-1H-pyrazol-3-ylamino)quinazolin-2-yl)(3-methylpiperazin-1-yl)methanone hydrochloride at 2.5 mg/kg, iv measured upto 24 hrs by LC/MS/MS analysis; type: ADME, organism-based; parameters: route intravenous, dose 2.5 mg/kg, time <=24; details: in vivo
[34] = Initial plasma concentration in Wistar rat assessed as (R)-(6-chloro-4-(5-cyclopropyl-1H-pyrazol-3-ylamino)quinazolin-2-yl)(3-methylpiperazin-1-yl)methanone hydrochloride at 2.5 mg/kg, iv measured upto 24 hrs by LC/MS/MS analysis; type: ADME, organism-based; details: in vivo
[35] = Half life in Wistar rat assessed as (R)-(6-chloro-4-(5-cyclopropyl-1H-pyrazol-3-ylamino)quinazolin-2-yl)(3-methylpiperazin-1-yl)methanone hydrochloride at 13.5 mg/kg, po measured upto 24 hrs by LC/MS/MS analysis; type: ADME, organism-based; details: in vivo

C0 [1]: 4520 ng/mL | remaining at 2 h [2]: 97.4% | AUC(0-inf) [3]: 108 ng·h/mL | AUC(0-t) at 24 h [4]: 106 ng·h/mL | AUC at 24 h [5]: 1110 ng·h/mL | Vd [6]: 12.4 L/kg | AUC(0-inf) [7]: 1120 ng·h/mL | Cmax [8]: 14.9 ng/mL | F [9]: 1.92% | half-life [10]: 4.8 h | half-life [11]: 3.9 h | remaining at 1 h [12]: 53.9% | Tmax [13]: 4.98 min | clearance [14]: 29.7 mL/min/kg
Structure (SMILES): C[C@@H]1CN(C(=O)c2nc(Nc3cc(C4CC4)[nH]n3)c3cc(Cl)ccc3n2)CCN1.Cl

AUC [15]: 470.8 ng·h/mL | F [16]: 7.55% | Cmax [18]: 31.5 ng/mL | remaining at 2 h [20]: 93.5% | remaining at 2 h [2]: 6.1% | AUC [22]: 1124.8 ng·h/mL | Vd [27]: 21.6 L/kg | Drug metabolism [28]: 89.9% | Tmax [30]: 4.98 min | t1/2 [31]: 7.1 h | AUC [32]: 129.7 ng·h/mL | remaining at 1 h [12]: 14% | AUC [33]: 1173.5 ng·h/mL | C0 [34]: 4130 ng/mL | t1/2 [35]: 20.1 h
Structure (SMILES): CC(C)C(=O)OCOC(=O)N1CCN(C(=O)c2nc(Nc3cc(C4CC4)[nH]n3)c3cc(Cl)ccc3n2)C[C@H]1C
inhibition in vivo at 25 mg/kg [17]: 51% | Stability [19]: 46% | Activity [21]: Non-Toxic | inhibition in vivo at 50 mg/kg [23]: 63% | inhibition in vivo at 25 mg/kg [24]: 54% | Stability [25]: 90% | Activity [26]: Non-Toxic | inhibition in vivo at 50 mg/kg [29]: 65%
